From PMC12606464, “Investigating NFE2L1 activators for targeted protein aggregate clearance: a follow-up study” (RSC Medicinal Chemistry, 2025)

Tested on: proteasome subunit gene expression (PSMC4, PSMB7, PSMD12)
Assay: RT-qPCR of proteasome genes in NFE2L1/NFE2L2-knockdown HEK293 cells
Assay type: cell-based, human
Conditions: for NFE2L1 mRNA, mean diff between siRNA treatments, log2 / NFE2L2 mRNA, mean diff between siRNA treatments, log2 / PSMB7 mRNA, mean diff between siRNA treatments, log2 / PSMD12 mRNA, mean diff between siRNA treatments, log2: RUN89-treated
Method: Fig. 1 (A) Targeted library screening of RUN compounds using the 3×PSMA4-ARE-LUC dual reporter assay in HEK293 cells. Cells were exposed to RUN compounds (5 μM) for 16 hours, and luciferase activity was measured. Data are presented as the mean ± SD from three independent experiments (n = 3). Results are shown as a fold change in luminescence relative to DMSO-treated cells. Selected hit compounds are highlighted in distinct colours. (B) RUN-89 specifically activates the NFE2L1 pathway. The DDI2 knockout (KO) and parental (WT) HCT116 cells were transfected with the 3×PSMA4-ARE-LUC reporter and treated with 0.5 μM bortezomib (BTZ) and 5 μM RUN-89 for 16 hours. Data are presented as the Geomean ± GeoSD of three independent experiments (n = 3). Statistical analysis was performed on log2-transformed values using two-way repeated-measures ANOVA followed by Šídak's multiple comparison test. (C) RUN-89 selectively triggers downstream signaling events associated with NFE2L1 gene expression. HEK293 cells were transfected with lipid nanoparticles (LNPs) carrying siRNAs targeting NFE2L1 or NFE2L2. LNPs formulated with non-targeting siRNA served as a negative control. Following 24 hours of incubation, cells were treated with 7.5 μM RUN-89 or DMSO (vehicle) for an additional 16 hours. Expression of the proteasomal subunit gene PSMC4 was then quantified by RT-qPCR. Data are shown as the Geomean ± GeoSD from three independent biological replicates (n = 3). Log2-transformed data were analyzed using two-way repeated-measures ANOVA with the Geisser–Greenhouse correction, followed by Tukey's multiple comparison test with individual variances computed for each comparison. Additional results for NFE2L1, NFE2L2, PSMB7, and PSMD12 are presented in SI Fig. S10.
To further confirm that RUN-89 acts through NFE2L1-dependent signalling, we investigated the effect of selective knockdown of NFE2L1 and NFE2L2 on the induction of proteasomal genes. HEK293 cells (from ATCC CCL-247 (RRID:CVCL_0291)) were transfected with lipid nanoparticles (LNPs) carrying siRNAs targeting either NFE2L1 or NFE2L2, while non-targeting siRNA was used as a control. After treatment with RUN-89, transcript levels of several proteasome subunit genes were analyzed by RT-qPCR.
Figure S10: Effects of RUN-89 on NFE2L1- and NFE2L2-associated target genes following […]
HEK293 cells were transfected with lipid nanoparticles (LNPs) containing siRNAs against NFE2L1, NFE2L2, or a non-targeting control siRNA. After 24 hours, cells were treated with 7.5 μM RUN-89 or DMSO (vehicle) for an additional 16 h, and transcript levels of NFE2L1, NFE2L2, PSMB4, PSMB7, and PSMD12 were quantified by RT -qPCR. Data are presented as mean ± SD from three independent biological replicates (n = 3). Log₂ -transformed data were analyzed by two -way repeated-measures ANOVA with Geisser –Greenhouse correction, followed by Tukey’s multiple compa rison test with individual variances computed for each comparison.
2.16 Analysis of proteasome genes expression in NFE2L1/NFE2L2-
The corresponding HEK293 cells were seeded into 24-well culture plates (120,000 cells/well) and allowed to adhere overnight under standard culture conditions. On the following day, cells were transfected with siRNAs targeting NFE2L1, NFE2L2, or a non-targeting negative control siRNA (Table S2). Transfections were performed using a lipid nanoparticle (LNP) delivery system assembled as previously described,(7) with a final siRNA concentration of ~0.2 nmol per well. After 24 h of incubation, cells were treated with 7.5 µM […] or DMSO (vehicle control) for 16 h. Total RNA was then extracted, converted into cDNA, and analyzed by RT-qPCR using primers targeting proteasome genes (listed in Section 2.5, Quantitative RT-PCR, Table S1). Expression levels were normalized to RPLP0 mRNA. The […]

[1] = NFE2L1 siRNA vs. NFE2L1 + L2 siRNA
[2] = NFE2L2 siRNA vs. NFE2L1 + L2 siRNA
[3] = Non transfected vs. NFE2L1 + L2 siRNA
[4] = Non transfected vs. NFE2L1 siRNA
[5] = Non transfected vs. NFE2L2 siRNA
[6] = Non transfected vs. Scramble control siRNA
[7] = Scramble control siRNA vs. NFE2L1 + L2 siRNA
[8] = Scramble control siRNA vs. NFE2L1 siRNA
[9] = Scramble control siRNA vs. NFE2L2 siRNA

Which results are given for `COc1ccc(/C=C2\CC(NC(=O)C3CCCC3)C/C(=C\c3ccc(OC)c(OC)c3)C2=O)cc1OC` (centres unmarked) [RUN-89]?
PSMC4 expression, mean log2, NFE2L1 + L2 siRNA (7.5 μM, 16 h, HEK293): 0.5367; PSMC4 expression, mean log2, NFE2L1 siRNA (7.5 μM, 16 h, HEK293): 0.5329; PSMC4 expression, mean log2, NFE2L2 siRNA (7.5 μM, 16 h, HEK293): 1.12; PSMC4 expression, mean log2, scramble control siRNA (7.5 μM, 16 h, HEK293): 1.335; PSMC4 expression, row mean of log2 values over all siRNA treatments (7.5 μM, 16 h, HEK293): 0.9981; PSMC4 expression, mean log2, non transfected (7.5 μM, 16 h, HEK293, no siRNA): 1.466; Induction of PSMC4 expression upon silencing of NFE2L1, but not NFE2L2 (HEK293, siRNA LNPs): markedly reduced; Mean diff, of log2-transformed values, DMSO vs. RUN89 (NFE2L1 + L2 siRNA): 0.1671; NFE2L1 mRNA, mean diff DMSO vs. RUN89, log2 (NFE2L1 + L2 siRNA): 0.4839; NFE2L1 mRNA, mean of log2-transformed values (NFE2L1 + L2 siRNA): -1.849; NFE2L2 mRNA, mean diff DMSO vs. RUN89, log2 (NFE2L1 + L2 siRNA): 0.1671; PSMB7 mRNA, mean diff DMSO vs. RUN89, log2 (NFE2L1 + L2 siRNA): -0.04295; PSMB7 mRNA, mean of log2-transformed values (NFE2L1 + L2 siRNA): -0.005215; PSMD12 mRNA, mean diff DMSO vs. RUN89, log2 (NFE2L1 + L2 siRNA): -1.247; PSMD12 mRNA, mean of log2-transformed values (NFE2L1 + L2 siRNA): 1.4; Mean diff, of log2-transformed values, DMSO vs. RUN89 (NFE2L1 siRNA): 0.3261; NFE2L1 mRNA, mean diff DMSO vs. RUN89, log2 (NFE2L1 siRNA): 0.5812; NFE2L1 mRNA, mean of log2-transformed values (NFE2L1 siRNA): -2.192; NFE2L2 mRNA, mean diff DMSO vs. RUN89, log2 (NFE2L1 siRNA): 0.3261; PSMB7 mRNA, mean diff DMSO vs. RUN89, log2 (NFE2L1 siRNA): 0.02314; PSMB7 mRNA, mean of log2-transformed values (NFE2L1 siRNA): -0.07162; PSMD12 mRNA, mean diff DMSO vs. RUN89, log2 (NFE2L1 siRNA): -1.239; PSMD12 mRNA, mean of log2-transformed values (NFE2L1 siRNA): 1.413; Mean diff, of log2-transformed values, DMSO vs. RUN89 (NFE2L2 siRNA): 0.07457; NFE2L1 mRNA, mean diff DMSO vs. RUN89, log2 (NFE2L2 siRNA): -0.06055; NFE2L1 mRNA, mean of log2-transformed values (NFE2L2 siRNA): -0.3257; NFE2L2 mRNA, mean diff DMSO vs. RUN89, log2 (NFE2L2 siRNA): 0.07457; PSMB7 mRNA, mean diff DMSO vs. RUN89, log2 (NFE2L2 siRNA): -0.4898; PSMB7 mRNA, mean of log2-transformed values (NFE2L2 siRNA): 0.4898; PSMD12 mRNA, mean diff DMSO vs. RUN89, log2 (NFE2L2 siRNA): -1.678; PSMD12 mRNA, mean of log2-transformed values (NFE2L2 siRNA): 1.979; Mean diff, of log2-transformed values, DMSO vs. RUN89 (Non transfected): -0.3265; NFE2L2 mRNA, mean diff DMSO vs. RUN89, log2 (Non transfected): -0.3265; PSMB7 mRNA, mean diff DMSO vs. RUN89, log2 (Non transfected): -0.7476; PSMB7 mRNA, mean of log2-transformed values (Non transfected): 0.7599; PSMD12 mRNA, mean diff DMSO vs. RUN89, log2 (Non transfected): -1.909; PSMD12 mRNA, mean of log2-transformed values (Non transfected): 2.076; NFE2L1 mRNA, mean diff between siRNA treatments, log2 [1]: 0.3437; NFE2L2 mRNA, mean diff between siRNA treatments, log2 [1]: 2.749; PSMB7 mRNA, mean diff between siRNA treatments, log2 [1]: -0.0664; PSMD12 mRNA, mean diff between siRNA treatments, log2 [1]: 0.01218; NFE2L1 mRNA, mean diff between siRNA treatments, log2 (NFE2L1 siRNA vs. NFE2L2 siRNA): 1.867; NFE2L2 mRNA, mean diff between siRNA treatments, log2 (NFE2L1 siRNA vs. NFE2L2 siRNA): 2.85; PSMB7 mRNA, mean diff between siRNA treatments, log2 (NFE2L1 siRNA vs. NFE2L2 siRNA): -0.5614; PSMD12 mRNA, mean diff between siRNA treatments, log2 (NFE2L1 siRNA vs. NFE2L2 siRNA): -0.5664; NFE2L1 mRNA, mean diff between siRNA treatments, log2 [2]: -1.523; NFE2L2 mRNA, mean diff between siRNA treatments, log2 [2]: -0.1013; PSMB7 mRNA, mean diff between siRNA treatments, log2 [2]: 0.495; PSMD12 mRNA, mean diff between siRNA treatments, log2 [2]: 0.5786; NFE2L1 mRNA, mean diff between siRNA treatments, log2 [3]: -2.639; NFE2L2 mRNA, mean diff between siRNA treatments, log2 [3]: 3.437; PSMB7 mRNA, mean diff between siRNA treatments, log2 [3]: 0.7651; PSMD12 mRNA, mean diff between siRNA treatments, log2 [3]: 0.6755; NFE2L1 mRNA, mean diff between siRNA treatments, log2 [4]: -2.982; NFE2L2 mRNA, mean diff between siRNA treatments, log2 [4]: 0.6883; PSMB7 mRNA, mean diff between siRNA treatments, log2 [4]: 0.8315; PSMD12 mRNA, mean diff between siRNA treatments, log2 [4]: 0.6633; NFE2L1 mRNA, mean diff between siRNA treatments, log2 [5]: -1.115; NFE2L2 mRNA, mean diff between siRNA treatments, log2 [5]: 3.539; PSMB7 mRNA, mean diff between siRNA treatments, log2 [5]: 0.27; PSMD12 mRNA, mean diff between siRNA treatments, log2 [5]: 0.09696; NFE2L2 mRNA, mean diff between siRNA treatments, log2 [6]: -0.01225; PSMB7 mRNA, mean diff between siRNA treatments, log2 [6]: 0.1431; PSMD12 mRNA, mean diff between siRNA treatments, log2 [6]: -0.01734; NFE2L1 mRNA, mean diff between siRNA treatments, log2 [7]: -2.465; NFE2L2 mRNA, mean diff between siRNA treatments, log2 [7]: 3.45; PSMB7 mRNA, mean diff between siRNA treatments, log2 [7]: 0.622; PSMD12 mRNA, mean diff between siRNA treatments, log2 [7]: 0.6929; NFE2L1 mRNA, mean diff between siRNA treatments, log2 [8]: -2.808; NFE2L2 mRNA, mean diff between siRNA treatments, log2 [8]: 0.7005; PSMB7 mRNA, mean diff between siRNA treatments, log2 [8]: 0.6884; PSMD12 mRNA, mean diff between siRNA treatments, log2 [8]: 0.6807; NFE2L1 mRNA, mean diff between siRNA treatments, log2 [9]: -0.9417; NFE2L2 mRNA, mean diff between siRNA treatments, log2 [9]: 3.551; PSMB7 mRNA, mean diff between siRNA treatments, log2 [9]: 0.127; PSMD12 mRNA, mean diff between siRNA treatments, log2 [9]: 0.1143; Mean diff, of log2-transformed values, DMSO vs. RUN89 (Scramble control siRNA): -0.3474; NFE2L1 mRNA, mean diff DMSO vs. RUN89, log2 (Scramble control siRNA): 0.6041; NFE2L1 mRNA, mean of log2-transformed values (Scramble control siRNA): 0.616; NFE2L2 mRNA, mean diff DMSO vs. RUN89, log2 (Scramble control siRNA): -0.3474; PSMB7 mRNA, mean diff DMSO vs. RUN89, log2 (Scramble control siRNA): -0.6138; PSMB7 mRNA, mean of log2-transformed values (Scramble control siRNA): 0.6168; PSMD12 mRNA, mean diff DMSO vs. RUN89, log2 (Scramble control siRNA): -2.092; PSMD12 mRNA, mean of log2-transformed values (Scramble control siRNA): 2.093; NFE2L1 mRNA, mean of log2-transformed values (row mean) (mean over all siRNA treatments): -0.5922; NFE2L2 mRNA, mean of log2-transformed values (row mean) (mean over all siRNA treatments): -1.194; PSMB7 mRNA, mean of log2-transformed values (row mean) (mean over all siRNA treatments): 0.3579; PSMD12 mRNA, mean of log2-transformed values (row mean) (mean over all siRNA treatments): 1.792; NFE2L1 mRNA, difference between means (DMSO - RUN89), log2 (over all siRNA treatments): -0.4084; NFE2L2 mRNA, difference between means (DMSO - RUN89), log2 (over all siRNA treatments): -0.02122; PSMB7 mRNA, difference between means (DMSO - RUN89), log2 (over all siRNA treatments): -0.3742; PSMD12 mRNA, difference between means (DMSO - RUN89), log2 (over all siRNA treatments): -1.633
